According to BigSolDB 2.1:

COc1cc(CC#N)cc(OC)c1OC
solubility (mole fraction)
Conditions	283.15 K	288.15 K	293.15 K	298.15 K	303.15 K	308.15 K	313.15 K	318.15 K	323.15 K
in DMF	0.102	0.127	0.158	0.195	0.239	0.289	0.35	0.418	0.497
in cyclohexane	0.000133	0.000248	0.000452	0.000814	0.00154	0.00253	0.00421	0.00671	0.011
in ethanol	0.00753	0.00999	0.0141	0.0209	0.0327	0.0539	0.0927	0.167	0.312
in ethyl acetate	0.0517	0.076	0.107	0.146	0.195	0.25	0.315	0.386	0.461
in isopropanol	0.00545	0.00703	0.00942	0.0134	0.0199	0.0305	0.0497	0.0838	0.146
in isopropyl acetate	0.0389	0.0537	0.0736	0.101	0.135	0.182	0.243	0.321	0.423
in methanol	0.00958	0.0128	0.0179	0.0261	0.0402	0.0638	0.106	0.183	0.327
in n-butanol	0.00774	0.00978	0.0129	0.018	0.0265	0.0409	0.0657	0.111	0.193
in n-heptane	5.37e-05	0.000146	0.000336	0.000693	0.00141	0.00222	0.00361	0.00573	0.00905
in n-hexane	0.000515	0.000732	0.00107	0.0016	0.00233	0.0035	0.00533	0.00803	0.0121
in n-propanol	0.00747	0.00951	0.0127	0.0179	0.0264	0.041	0.0658	0.111	0.191
in sec-butanol	0.00911	0.0137	0.0206	0.0314	0.0481	0.0755	0.118	0.189	0.301
